These results are taken from ChEMBL document CHEMBL1134851, “Apoptosis-inducing activity of synthetic intermediates of halichlorine” (Bioorg Med Chem Lett, 2002).

The test system of this assay is THP-1. Nature of the assay: Cytotoxicity towards the acute monocytic leukemia cell line (THP-1). The format is functional, cell-based. The conditions noted are these: Homo sapiens.

Turning to `COC(=O)C1CC[C@H]2CCC[C@]3(CCC[C@@H]3CO)N2C1=O` (some centres not stated), the IC50 (as a rule, the concentration that inhibits the measured activity by half) was more than 100 µM.

As for `O=C1CCC[C@H]2CCC[C@]3(CCC[C@@H]3CO)N12`, the IC50 is more than 100 µM.

In turn, `CCOC(=O)C[C@H]1CCC[C@]2(CCC[C@@H]2CO[Si](c2ccccc2)(c2ccccc2)C(C)(C)C)N1` displayed an IC50 of 40 µM.

In turn, `COC(=O)C1CC[C@H]2CCC[C@]3(CCC[C@@H]3CO[Si](c3ccccc3)(c3ccccc3)C(C)(C)C)N2C1=O` (some centres not stated) registered an IC50 of more than 100 µM.

Regarding `CC(C)(C)[Si](OC[C@H]1CCC[C@]12CCC[C@H](CCO)N2)(c1ccccc1)c1ccccc1`, the 50% inhibitory concentration (IC50) worked out at 8.9 µM.

The compound `CCO/C(O)=C/C1=N[C@]2(CCC1)CCC[C@@H]2CO[Si](c1ccccc1)(c1ccccc1)C(C)(C)C` came in with an IC50 of more than 100 µM.

The compound `CCO/C(O)=C/C1=N[C@]2(CCC1)CCC[C@@H]2CO` returned a concentration for half-maximal inhibition (IC50) of more than 100 µM.

Consider `CC(C)(C)[Si](OC[C@H]1CCC[C@]12CCC[C@@H]1CCCC(=O)N12)(c1ccccc1)c1ccccc1`, for which the IC50 stood at 71 µM.

`CCOC(=O)C[C@@H]1CCC[C@@]23CCC[C@@H]2CON13` registered an IC50 of more than 100 µM.

Compound `N#CC1=CC[C@H]2CCC[C@]3(CCC[C@@H]3CO)N2C1=O` returned an IC50 of more than 100 µM.

`COC(=O)C1=CC[C@H]2CCC[C@]3(CCC[C@@H]3CO[Si](c3ccccc3)(c3ccccc3)C(C)(C)C)N2C1=O` displayed an IC50 of 5 µM.

The compound `O=C1OC[C@H]2CCC[C@]23CCC[C@H](CCO)N13` returned an IC50 of more than 100 µM.

In turn, `O=C1OCC[C@H]2CCC[C@]3(CCC[C@@H]3CO)N12` displayed an IC50 of more than 100 µM.

In turn, `CC(C)(C)[Si](OC[C@H]1CCC[C@]12CCC[C@@H]1CCOC(=O)N12)(c1ccccc1)c1ccccc1` showed an IC50 of 32 µM.

Turning to `CC(C)(C)[Si](OC[C@H]1CCC[C@]12CCC[C@@H]1CCC(CO)C(=O)N12)(c1ccccc1)c1ccccc1` (some centres not stated), the concentration for half-maximal inhibition (IC50) worked out at 63 µM.

The compound `CC(=O)N1[C@@H](CCO)CCC[C@]12CCC[C@@H]2CO[Si](c1ccccc1)(c1ccccc1)C(C)(C)C` came in with an IC50 of 25 µM.

`CC(C)(C)[Si](OC[C@H]1CCC[C@]12CCC[C@@H]1CCC(CO)CN12)(c1ccccc1)c1ccccc1` (some centres not stated) registered an IC50 of 32 µM.
